Laboratory results from ChEMBL document CHEMBL2074138, “New multidrug-resistance-reversing drugs, MS-209 and SDZ PSC 833” (Cancer Chemother Pharmacol, 1997).

Molecular target: ATP-dependent translocase ABCB1 (Homo sapiens, UniProt P08183)
Experiment: TP_TRANSPORTER: increase in Doxorubicin intracellular accumulation (Doxorubicin: 0.05 ug/mL, MS-209: 3 uM) in K562/ADM cells
Assay type: functional, cell-based
Conditions: k562/adr

ATP-dependent translocase ABCB1, sequence (P08183 whole entry): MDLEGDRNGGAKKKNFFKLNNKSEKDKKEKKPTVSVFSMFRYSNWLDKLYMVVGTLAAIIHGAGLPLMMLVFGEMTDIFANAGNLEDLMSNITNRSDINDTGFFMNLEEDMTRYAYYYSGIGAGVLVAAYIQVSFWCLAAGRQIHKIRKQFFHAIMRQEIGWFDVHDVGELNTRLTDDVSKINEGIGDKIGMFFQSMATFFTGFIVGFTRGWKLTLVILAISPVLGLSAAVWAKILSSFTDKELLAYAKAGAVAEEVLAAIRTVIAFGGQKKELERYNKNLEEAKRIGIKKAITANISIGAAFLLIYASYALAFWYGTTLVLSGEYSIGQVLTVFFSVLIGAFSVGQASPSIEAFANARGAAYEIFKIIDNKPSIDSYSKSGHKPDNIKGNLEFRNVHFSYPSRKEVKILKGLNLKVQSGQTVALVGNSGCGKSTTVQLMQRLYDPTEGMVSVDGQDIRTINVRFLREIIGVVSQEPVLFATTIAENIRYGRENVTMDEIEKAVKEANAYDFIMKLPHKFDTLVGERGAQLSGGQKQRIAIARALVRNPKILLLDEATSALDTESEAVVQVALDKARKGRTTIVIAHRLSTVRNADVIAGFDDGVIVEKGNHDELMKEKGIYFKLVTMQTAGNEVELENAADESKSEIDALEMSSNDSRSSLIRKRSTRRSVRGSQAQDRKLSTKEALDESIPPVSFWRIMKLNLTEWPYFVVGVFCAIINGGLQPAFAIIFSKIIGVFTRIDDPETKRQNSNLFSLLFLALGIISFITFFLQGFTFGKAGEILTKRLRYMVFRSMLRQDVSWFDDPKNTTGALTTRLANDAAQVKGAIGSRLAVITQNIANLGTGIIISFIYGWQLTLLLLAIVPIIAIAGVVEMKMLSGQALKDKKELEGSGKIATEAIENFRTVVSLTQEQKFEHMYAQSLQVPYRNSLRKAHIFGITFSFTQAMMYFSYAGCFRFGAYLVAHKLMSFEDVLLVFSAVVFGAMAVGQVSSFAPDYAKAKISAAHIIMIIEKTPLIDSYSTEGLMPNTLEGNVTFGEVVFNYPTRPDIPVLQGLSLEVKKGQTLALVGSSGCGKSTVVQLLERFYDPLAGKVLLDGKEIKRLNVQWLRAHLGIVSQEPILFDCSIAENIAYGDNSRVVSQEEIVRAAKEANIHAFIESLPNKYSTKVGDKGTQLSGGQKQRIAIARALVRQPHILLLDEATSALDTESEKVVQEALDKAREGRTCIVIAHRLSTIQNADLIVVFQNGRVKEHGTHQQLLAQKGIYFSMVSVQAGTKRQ

O=C(C(c1ccccc1)c1ccccc1)N1CCN(C[C@@H](O)COc2cccc3ncccc23)CC1
Activity: inhibitor [+]
